From patent publication EP4101830A1, “NOVEL DIARYLIODONIUM SALT MIXTURES AS LOW MOLECULAR WEIGHT PHOTOINITIATORS WITH MINIMIZED CRYSTALLIZATION BEHAVIOR AND ELEVATED SOLUBILITY” (FEW Chemicals GmbH, priority 2021, dated 2022) come the findings set out here.

By solubility is commonly meant how much of the substance goes into solution per volume.

The structures appear in SMILES notation. Counter-ions that a name gives are not always drawn.

Data set [1] in a line: Solubility of photoinitiator in sol-gel coating and layer (visual). The format is physicochemical. The settings on record: sol-gel coating on PET foil; result in words. As to the method: A sol-gel coating solution consisting of 15% TEOS, 5% epoxy-modified silanes, 75% organic solvents, and 5% water was prepared according to protocols known (R.B. Figueira et al.; Journal of Coatings Technology and Research 2015, 12, 1-35). To 10 g of this coating solution were added 0.05 g of photoinitiator test compounds (see Table 5/example 7), followed by 1 hour of stirring at room temperature. This solution was applied to a PET foil at a wet thickness of 30 µm by a doctor blade device. This material was illuminated at 254 nm for 2 min or for 5 min (UV-Crosslinker device; UVP). The abrasion resistance (500 cycles) was determined with a standard method (taber-abraser) and the decrease in gloss was measured. […] TABLE 5 / Example 7

A short description of data set [2]: Solubility in nonpolar solvents (MEK/dowanol 1:1). The settings on record: measured in MEK/dowanol 1:1. The format is physicochemical. An excerpt:
Thus, efficacy of photoinitiation, when given by radicals per mass, is higher for low molecular weight mixtures of the embodiment. Furthermore, the solubility in nonpolar solvents (such as ketones, ethers, esters) is improved.

As to `CC(C)(C)c1ccc([I+]c2ccc(C(C)(C)C)cc2)cc1.FC(F)(F)C([O][Al-]([O]C(C(F)(F)F)(C(F)(F)F)C(F)(F)F)([O]C(C(F)(F)F)(C(F)(F)F)C(F)(F)F)[O]C(C(F)(F)F)(C(F)(F)F)C(F)(F)F)(C(F)(F)F)C(F)(F)F` [bis-(4-tert.-butyl-phenyl)-iodonium tetrakis(perfluoro-tert.-butoxy)aluminate], in data set [1], the “solubility in the coating and layer” value is “visible precipitates and spots in the coat”.

In the case of `CC(C)(C)c1ccc([I+]c2ccc(C(C)(C)C)cc2)cc1` [comparative iodonium salt 1, bis[4-(1,1-dimethylethyl)phenyl]-iodonium tetraphenylborate], in data set [2], the solubility was found to be 149 mg/mL.
